# Results: patent US6737383B1, “Herbicidal oxadiazolidines” (priority 1999, dated 2004)
# What was measured:
# bedstraw = assay: Test B pre/postemergence bedstraw; type: in vivo, Galium aparine
# How it was run: (§1)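 Test chemicals in a non-phytotoxic solvent mixture with surfactant were sprayed preemergence onto planted seeds and postemergence onto plants 2 to 18 cm tall (1- to 4-leaf stage). After twelve to sixteen days in a greenhouse, injury was visually rated against untreated controls from 0 (no effect) to 10 (complete control).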
# surinam grass = assay: Test B pre/postemergence surinam grass; type: in vivo, Brachiaria decumbens
# How it was run: as §1
# cocklebur = assay: Test B pre/postemergence cocklebur; type: in vivo, Xanthium strumarium
# How it was run: as §1
# corn = assay: Test B pre/postemergence corn; type: in vivo, Zea mays
# How it was run: as §1
# crabgrass = assay: Test B pre/postemergence crabgrass; type: in vivo, Digitaria sanguinalis
# How it was run: as §1
# giant foxtail = assay: Test B pre/postemergence giant foxtail; type: in vivo, Setaria faberii
# How it was run: as §1
# morningglory = assay: Test B pre/postemergence morningglory; type: in vivo, Ipomoea hederacea
# How it was run: as §1
# pigweed = assay: Test B pre/postemergence pigweed; type: in vivo, Amaranthus retroflexus
# How it was run: as §1
# rape = assay: Test B pre/postemergence rape; type: in vivo, Brassica napus
# How it was run: as §1
# soybean = assay: Test B pre/postemergence soybean; type: in vivo, Glycine max
# How it was run: as §1
# sugar beet = assay: Test B pre/postemergence sugar beet; type: in vivo, Beta vulgaris
# How it was run: as §1
# velvetleaf = assay: Test B pre/postemergence velvetleaf; type: in vivo, Abutilon theophrasti
# How it was run: as §1
# wheat = assay: Test B pre/postemergence wheat; type: in vivo, Triticum aestivum
# How it was run: as §1
# purple nutsedge = assay: Test B pre/postemergence purple nutsedge; type: in vivo, Cyperus rotundus
# How it was run: as §1
# [1] = Preemergence, Rate 62 g/ha, scale 0 to 10 (0 no effect, 10 complete control)
# [2] = Preemergence, Rate 125 g/ha, 0 is no effect, 10 is complete control
# [3] = Preemergence, Rate 250 g/ha, scale 0 to 10, 0 is no effect, 10 is complete control
# [4] = Preemergence, Rate 500 g/ha, scale 0 to 10 (0 no effect, 10 complete control)
# [5] = Rate 62 g/ha, Postemergence, scale of 0 to 10 where 0 is no effect and 10 is complete control
# [6] = Rate 250 g/ha, Postemergence, scale 0 to 10, 0 is no effect, 10 is complete control
# [7] = Postemergence, Rate 125 g/ha, scale of 0 to 10 where 0 is no effect and 10 is complete control
# [8] = Rate 500 g/ha, Postemergence, scale 0 to 10
structure (smiles),measurement,setting,value
CCCn1c(=O)on(C(=O)N(c2ccc(F)cc2F)C(C)C)c1=O [Compound 130],Bedstraw plant response rating,bedstraw; [1],0
same,Bedstraw plant response rating (0 to 10 scale),bedstraw; [2],0
same,Bedstraw plant response rating,bedstraw; [3],2
same,Bedstraw plant response rating,bedstraw; [4],10
same,Bedstraw plant response rating,bedstraw; [5],0
same,"Plant response rating, Bedstraw",bedstraw; [6],6
same,Bedstraw plant response rating,"bedstraw; Rate 500 g/ha, Postemergence, scale 0 to 10, 0 no effect, 10 complete control",8
same,B. signalgrass plant response rating,surinam grass; [7],2
same,B. signalgrass plant response rating,surinam grass; [1],6
same,B. signalgrass plant response rating (0 to 10 scale),surinam grass; [2],9
same,B. signalgrass plant response rating,surinam grass; [3],9
same,B. signalgrass plant response rating,surinam grass; [4],9
same,B. signalgrass plant response rating,surinam grass; [5],1
same,"Plant response rating, B. signalgrass",surinam grass; [6],7
same,B. signalgrass plant response rating,"surinam grass; Rate 500 g/ha, Postemergence, scale of 0 to 10 where 0 is no effect and 10 is complete control",8
same,Cocklebur plant response rating,cocklebur; [7],0
same,Cocklebur plant response rating,cocklebur; [1],0
same,Cocklebur plant response rating (0 to 10 scale),cocklebur; [2],0
same,Cocklebur plant response rating,cocklebur; [3],0
same,Cocklebur plant response rating,cocklebur; [4],0
same,Cocklebur plant response rating,cocklebur; [5],0
same,"Plant response rating, Cocklebur",cocklebur; [6],0
same,Cocklebur plant response rating,cocklebur; [8],3
same,Corn plant response rating,corn; [7],0
same,Corn plant response rating,corn; [1],3
same,Corn plant response rating (0 to 10 scale),corn; [2],3
same,Corn plant response rating,corn; [3],6
same,Corn plant response rating,corn; [4],6
same,Corn plant response rating,corn; [5],0
same,"Plant response rating, Corn",corn; [6],2
same,Corn plant response rating,corn; [8],3
same,Crabgrass plant response rating,crabgrass; [7],9
same,Crabgrass plant response rating,crabgrass; [1],6
same,Crabgrass plant response rating (0 to 10 scale),crabgrass; [2],9
same,Crabgrass plant response rating,crabgrass; [3],9
same,Crabgrass plant response rating,crabgrass; [4],10
same,Crabgrass plant response rating,crabgrass; [5],5
same,"Plant response rating, Crabgrass",crabgrass; [6],9
same,Crabgrass plant response rating,crabgrass; [8],9
same,Giant foxtail plant response rating,giant foxtail; [7],9
same,Giant foxtail plant response rating,giant foxtail; [1],7
same,Giant foxtail plant response rating (0 to 10 scale),giant foxtail; [2],9
same,Giant foxtail plant response rating,giant foxtail; [3],10
same,Giant foxtail plant response rating,giant foxtail; [4],10
same,Giant foxtail plant response rating,giant foxtail; [5],8
same,"Plant response rating, Giant foxtail",giant foxtail; [6],9
same,Giant foxtail plant response rating,giant foxtail; [8],9
same,Morningglory plant response rating,morningglory; [7],2
same,Morningglory plant response rating,morningglory; [1],0
same,Morningglory plant response rating (0 to 10 scale),morningglory; [2],0
same,Morningglory plant response rating,morningglory; [3],3
same,Morningglory plant response rating,morningglory; [4],4
same,Morningglory plant response rating,morningglory; [5],2
same,"Plant response rating, Morningglory",morningglory; [6],2
same,Morningglory plant response rating,morningglory; [8],3
same,Redroot pigweed plant response rating,pigweed; [7],3
same,Redroot pigweed plant response rating,pigweed; [1],6
same,Redroot pigweed plant response rating (0 to 10 scale),pigweed; [2],10
same,Redroot pigweed plant response rating,pigweed; [3],10
same,Redroot pigweed plant response rating,pigweed; [4],10
same,Redroot pigweed plant response rating,pigweed; [5],0
same,"Plant response rating, Redroot pigweed",pigweed; [6],3
same,Redroot pigweed plant response rating,pigweed; [8],6
same,Rape plant response rating,rape; [7],2
same,Rape plant response rating,rape; [1],4
same,Rape plant response rating (0 to 10 scale),rape; [2],9
same,Rape plant response rating,rape; [3],10
same,Rape plant response rating,rape; [4],10
same,Rape plant response rating,rape; [5],0
same,Rape plant response rating,rape; [8],2
same,Soybean plant response rating,soybean; [7],2
same,Soybean plant response rating,soybean; [1],0
same,Soybean plant response rating (0 to 10 scale),soybean; [2],0
same,Soybean plant response rating,soybean; [3],3
same,Soybean plant response rating,soybean; [4],4
same,Soybean plant response rating,soybean; [5],1
same,"Plant response rating, Soybean",soybean; [6],3
same,Soybean plant response rating,soybean; [8],5
same,Sugarbeets plant response rating,sugar beet; [7],0
same,Sugarbeets plant response rating,sugar beet; [1],7
same,Sugarbeets plant response rating (0 to 10 scale),sugar beet; [2],9
same,Sugarbeets plant response rating,sugar beet; [3],10
same,Sugarbeets plant response rating,sugar beet; [4],10
same,Sugarbeets plant response rating,sugar beet; [5],0
same,"Plant response rating, Sugarbeets",sugar beet; [6],2
same,Sugarbeets plant response rating,sugar beet; [8],4
same,Velvetleaf plant response rating,velvetleaf; [7],3
same,Velvetleaf plant response rating,velvetleaf; [1],5
same,Velvetleaf plant response rating (0 to 10 scale),velvetleaf; [2],8
same,Velvetleaf plant response rating,velvetleaf; [3],8
same,Velvetleaf plant response rating,velvetleaf; [4],10
same,Velvetleaf plant response rating,velvetleaf; [5],0
same,"Plant response rating, Velvetleaf",velvetleaf; [6],5
same,Velvetleaf plant response rating,velvetleaf; [8],5
same,Wheat plant response rating,wheat; [7],1
same,Wheat plant response rating,wheat; [1],2
same,Wheat plant response rating (0 to 10 scale),wheat; [2],3
same,Wheat plant response rating,wheat; [4],4
same,Wheat plant response rating,wheat; [5],0
same,"Plant response rating, Wheat",wheat; [6],3
same,Wheat plant response rating,wheat; [8],8
same,Nutsedge plant response rating,purple nutsedge; [7],0
same,Nutsedge plant response rating,purple nutsedge; [1],0
same,Nutsedge plant response rating (0 to 10 scale),purple nutsedge; [2],0
same,Nutsedge plant response rating,purple nutsedge; [3],0
same,Nutsedge plant response rating,purple nutsedge; [4],3
same,Nutsedge plant response rating,purple nutsedge; [5],0
same,"Plant response rating, Nutsedge",purple nutsedge; [6],0
same,Nutsedge plant response rating,purple nutsedge; [8],0
